Assay results as given in US5955500A (G. D. Searle & Co., priority 1997, dated 1999).
Where two headings read alike, the source gives them in different places.

Assays:
[1] = test system: isolated working rat heart
[2] = test system: isolated working rat heart; remark: listed apart in the source
[3] = test system: canine heart; conditions: for AH time / Heart rate / Mean arterial pressure: mean ± SE
Procedure: Fourteen adult mongrel dogs of either sex weighing between 19 and 25 kg were prepared for chronic electrophysiologic investigation by implanting epicardial electrodes and an indwelling aortic catheter. The dogs were fasted overnight and initially anesthetized with halothane on the day of surgery. After tracheal intubation, anesthesia was maintained with isoflurane and oxygen via positive pressure ventilation to keep end tidal carbon dioxide within the normal range. Muscular relaxation was induced by pancuronium. A right thoracotomy was performed in the fifth intercostal space. Three bipolar electrode pairs were sutured to the epicardial surface of the right atrial appendage and on the right and left ventricular apex (FIG. 5). A bipolar electrode was sutured to the right atrium close to the anatomical region of the sinoatrial node. A bipolar plunge electrode was placed into base of the interventricular septum to record a His bundle electrogram. An indwelling arterial catheter was placed into the aorta through the left femoral artery after surgical exposure of the artery at the inner side of the hind limb. All electrode leads were subcutaneously tunneled and exited through the skin between the scapulae. Incisions were closed in anatomic fashion and standard postoperative methods of analgesia were provided with 0.015 mg/kg of buprenorphine (Buprenex®, Reckitt & Colman, Hull, UK) and two times of 25 mg/kg cefazolin (Cefazolin Sodium®, SoloPak Laboratories, Elk Groove Village, Ill.) and dogs were allowed to recover from surgery for a period of seven days prior to testing.
Electrical signals from the bipolar electrodes, after suitable amplification in a custom built preamplifier (gain 1000), were filtered in a separate custom designed and built common mode rejection amplifier with a bandpass filter of 10-1000 Hz and individually adjusted for signal strength (maximal gain 400). […] Right atrial appendage (RA), right ventricular apex (RVA) and His bundle electrograms (HB) were recorded, simultaneously. […] All measurements of conduction times were made during spontaneous sinus rhythm.
The His bundle electrode (HBE) was advanced into the base of the interatrial septum from the aortic root. The electrode was advanced from a point located just behind and to the right of the origin of the right coronary artery. The HBE was slowly advanced parallel to the aorta, inferiorly and slightly anteriorly until a well discernible His potential was recorded. AV conduction (AH) interval was measured as the time difference (ms) between the onset of the initial rapid deflection in the RA electrogram to the beginning of the His potential in the HB electrogram. His-ventricular (HV) conduction time interval (ms) was measured from the beginning of the His potential (HBE) to the initial deflection of the QRS complex wave (earliest left ventricular activation) in a simultaneously recorded surface ECG lead II.
As an indicator of automaticity, sinus node recovery time (SNRT) was determined by pacing the right atrial appendage (30 s at 180 and 200 beats/min at 2 msec pulse duration; 2×threshold). SNRT was measured from the last pacing spike to the first spontaneous atrial activity on the His bundle electrogram after cessation of pacing (ms).
A timed extrastimulus (S2) was delivered 300 ms after the preceding pacing spike (S1).
Verapamil was dissolved in 5% dextrose and water ([…]).
During the postoperative period, each dog was trained to stand quietly in a sling during electrophysiological monitoring. Prior to measurement, electrical signals in each dog were monitored to verify the absence of spontaneous arrhythmias other-than normal respiratory sinus arrhythmias.
From the resting dog, 5 channel records were obtained at a sampling rate of 1 kHz per channel for 7 min to determine the following conduction intervals: AH, HV, QRS, QT and HR. A corrected QT interval [QTc=QT interval in ms/ (R-R interval in s)^1/2 ] was also calculated.

[4] = test system: isolated working rat heart; conditions: R 950 ng/ml

## COc1ccc(CCN(C)CCC[C@](C#N)(c2ccc(OC)c(OC)c2)C(C)C)cc1OC [R-verapamil, reference compound]
[1]; R alone, R1-R4 (50-950 ng/ml cumulative)
  Peak systolic pressure (PSP), significance vs predrug: n.s.
[1]; R exceeding 200 ng/ml (R2)
  Cardiac output change, in words: Cardiac output appears to increase
[2]; R1 (50 ng/ml)
  Cardiac output (CO), significance vs baseline: n.s.
  Heart rate (HR), significance vs baseline: n.s.
  Peak systolic pressure (PSP), significance vs baseline: n.s.
[2]; R2 (200 ng/ml)
  Cardiac output (CO), significance vs baseline: n.s.
  Heart rate (HR), significance vs baseline: n.s.
  Peak systolic pressure (PSP), significance vs baseline: n.s.
[2]; R3 (450 ng/ml)
  Cardiac output (CO), significance vs baseline: n.s.
  Heart rate (HR), significance vs baseline: n.s.
  Peak systolic pressure (PSP), significance vs baseline: n.s.
[2]; R4 (950 ng/ml)
  Peak systolic pressure (PSP), significance vs baseline: n.s.
[2]; increasing levels of R
  Effect on peak systolic pressure (PSP), in words: remains unaffected by increasing levels of R
[3]; 0.1 mg/kg i.v., 0 min
  AH time: 88 ± 5 ms
  Heart rate: 103 ± 9 beats per min
  Mean arterial pressure: 94 ± 3 mmHg
[3]; 0.1 mg/kg i.v., 1 min
  AH time: 94 ± 4 ms
  Heart rate: 95 ± 7 beats per min
  Mean arterial pressure: 95 ± 3 mmHg
[3]; 0.1 mg/kg i.v., 2 min
  AH time: 93 ± 5 ms
  Heart rate: 98 ± 8 beats per min
  Mean arterial pressure: 95 ± 2 mmHg
[3]; 0.1 mg/kg i.v., 3 min
  AH time: 93 ± 5 ms
  Heart rate: 93 ± 7 beats per min
  Mean arterial pressure: 95 ± 3 mmHg
[3]; 0.1 mg/kg i.v., 4 min
  AH time: 95 ± 5 ms
  Heart rate: 91 ± 8 beats per min
  Mean arterial pressure: 95 ± 3 mmHg
[3]; 0.1 mg/kg i.v., 5 min
  AH time: 95 ± 5 ms
  Heart rate: 92 ± 8 beats per min
  Mean arterial pressure: 95 ± 3 mmHg
[3]; 0.2 mg/kg i.v., 0 min
  AH time: 93 ± 4 ms
  Heart rate: 106 ± 7 beats per min
  Mean arterial pressure: 90 ± 3 mmHg
[3]; 0.2 mg/kg i.v., 1 min
  AH time: 99 ± 5 ms
  Heart rate: 104 ± 8 beats per min
  Mean arterial pressure: 97 ± 3 mmHg
[3]; 0.2 mg/kg i.v., 2 min
  AH time: 97 ± 5 ms
  Heart rate: 99 ± 9 beats per min
  Mean arterial pressure: 97 ± 3 mmHg
[3]; 0.2 mg/kg i.v., 3 min
  AH time: 98 ± 4 ms
  Heart rate: 102 ± 9 beats per min
  Mean arterial pressure: 94 ± 2 mmHg
[3]; 0.2 mg/kg i.v., 4 min
  AH time: 98 ± 4 ms
  Heart rate: 96 ± 8 beats per min
  Mean arterial pressure: 96 ± 2 mmHg
[3]; 0.2 mg/kg i.v., 5 min
  AH time: 99 ± 5 ms
  Heart rate: 95 ± 9 beats per min
  Mean arterial pressure: 92 ± 2 mmHg
[3]; 0.4 mg/kg i.v., 0 min
  AH time: 97 ± 4 ms
  Heart rate: 123 ± 5 beats per min
  Mean arterial pressure: 86 ± 2 mmHg
[3]; 0.4 mg/kg i.v., 1 min
  AH time: 106 ± 5 ms
  Heart rate: 108 ± 6 beats per min
  Mean arterial pressure: 94 ± 2 mmHg
[3]; 0.4 mg/kg i.v., 2 min
  AH time: 106 ± 4 ms
  Heart rate: 109 ± 5 beats per min
  Mean arterial pressure: 98 ± 3 mmHg
[3]; 0.4 mg/kg i.v., 3 min
  AH time: 104 ± 4 ms
  Heart rate: 106 ± 7 beats per min
  Mean arterial pressure: 97 ± 3 mmHg
[3]; 0.4 mg/kg i.v., 4 min
  AH time: 104 ± 5 ms
  Heart rate: 108 ± 7 beats per min
  Mean arterial pressure: 99 ± 3 mmHg
[3]; 0.4 mg/kg i.v., 5 min
  AH time: 105 ± 5 ms
  Heart rate: 111 ± 6 beats per min
  Mean arterial pressure: 98 ± 3 mmHg
[3]; increase in HR against drop in MAP
  Interaction between MAP and HR (multiple linear regression), in words: least increase in heart rate measured against a drop in blood pressure
[4]
  Effect on peak systolic pressure (PSP), in words: no apparent effect on PSP
[4]; S 100 ng/ml
  Nature of cardiac effect (inotropic / chronotropic): primarily chronotropic
[4]; S 100 ng/ml, R/S ratio 9.5
  Peak systolic pressure (PSP), significance vs predrug: n.s.
